This note sets out measurements from patent US7928090B2, “External preparation composition” (Lion Corporation, priority 2002, dated 2011).

Structures are written as SMILES.

Data set [1] relates to back skin of hairless mice irradiated with UVB. In words: Coarse texture-improving test. It counts as in vivo, hairless mice (hos: HR-1). The settings on record: 0.05% in ethanol/propylene glycol (7:3), 100 μL, 4 weeks; texture intersection points relative to non-irradiated group (control 24). On the procedure: Four (4) hairless mice per 1 group (hos: HR-1, 10 weeks of age, female) were irradiated on the back skin once a day with UVB at 40 mJ/cm^2 three times a week over a period of 6 weeks. After finishing irradiation, each 100 μL of an ethanol/propylene glycol (7:3) solution containing 0.05% of various acyl glucosamine derivatives shown in the following Table 4 or an ethanol/propylene glycol (7:3) solution as a control was applied on the mouse back in a frequency of once a day and five times a week over 4 weeks.
After finishing application, a replica agent (brand name SILFLO®; manufactured by UK FLEXICO DEVELOPMENTS LTD.) was used to obtain a replica of a mouse back skin. A replica of a UV-non-irradiated group (4 heads) was obtained as a control in the same manner.
The enlarged photographs of the respective replicas were taken through a macro lens (magnification: four times), and the photographs were used to evaluate “coarsening of the texture”.
The coarseness of the texture was defined by a “number of texture intersection point”, wherein a point in which three or more sulci cutis are joined is counted as one intersection point, and the number of the texture intersection points present in a square of 1 cm×1 cm was counted on the replica photograph.
An average point for the respective groups was calculated, and the texture-improving rate was calculated according to the following equation (III). Texture-improving rate (%)=[(number of texture intersection of applied group)/(number of texture intersection point of non-irradiated group)]×100 (III)

Data set [2] shares this test system. In words: Wrinkle-improving test. Type of data set: in vivo, hairless mice (hos: HR-1). The settings on record: 0.05% in ethanol/propylene glycol (7:3), 100 μL once a day, five times a week, 8 weeks; versus control group. How it is done:
Four (4) hairless mice per 1 group (hos: HR-1, 10 weeks of age, female) were irradiated on the back skin once a day with UVB at 50 mJ/cm^2 five times a week over a period of 10 weeks. After finishing irradiation, each 100 μL of an ethanol/propylene glycol (7:3) solution containing 0.05% of various acyl glucosamine derivatives shown in the following Table 3 was applied on the mouse back in a frequency of once a day and five times a week over 8 weeks.
After finishing application for 8 weeks, the degree of wrinkles was visually evaluated according to the following evaluation criteria and calculation equation. A control group applied with the ethanol/propylene glycol (7:3) solution was evaluated as a control in the same manner.
Evaluation Criteria of the Degree of Wrinkles:
Evaluation point 0: a lot of fine striations is present on the back and the flank; fine striations run in a direction from the head to the tail; and the striations appear or disappear with the motion of the mouse.
Evaluation point 1: all fine striations along the spine are not observed; a few shallow and coarse wrinkles run perpendicularly to the head-to-tail direction; and the striations appear or disappear with the motion of the mouse.
The respective bodies were evaluated by an evaluation point of a 0.5 unit to calculate an average point for the respective groups, and the wrinkle-improving rate was calculated for the respective groups according to the following equation (II). Wrinkle-improving rate (%)=[(average value of the control group−average value of a glucosamine derivative-applied group)/(average value of the control group)]×100 (II)

Data set [3] concerns pigmentation on the backs of color guinea pigs. In words: Whitening evaluation (UV-induced pigmentation). Type of data set: in vivo. The arrangement: key: +++: notably improved; ++: improved; +: a little improved; ±: no change. Particulars: 0.05% in ethanol/propylene glycol (7:3), 30 μL once a day, five times a week, 4 weeks; visual change in pigmentation. On the procedure: Back body hair of color guinea pigs were shaved by means of a hair clipper and a shaver, and they were irradiated with UV rays once a day, 4 times a week and 8 times in total, whereby 4 parts of pigmentation having an area of about 2.25 cm^2 were formed on the backs of the respective guinea pigs.
Each 30 μL of an ethanol/propylene glycol (7:3) solution containing 0.05% of various acyl glucosamine derivatives shown in the following Table 7 was applied thereon in a frequency of once a day and five times a week over 4 weeks, and a change in the pigmentation was visually evaluated according to four degrees of the following evaluation criteria. The solution containing no acyl glucosamine derivative was used for a comparative example.

The subject of a further data set is guinea pig skin. In words: Continuous irritative test of guinea pig skin (Draize method). It counts as in vivo, guinea pig (Hartley series). The settings on record: Table 1; 0.5% in ethanol/propylene glycol (7:3), 50 μL once a day, 3 days straight; total of erythema and edema, full marks 8 points. How it is done:
Each left and right two spots (4 spots/head) of applying parts having a frame of 2 cm×2 cm were provided on the back of a shaved guinea pig (Hartley series, 7 weeks of age, female, N=10), and each 50 μL of an ethanol/propylene glycol (7:3) solution containing 0.5% of the respective acyl glucosamine derivatives shown in the following Table 1 was applied once a day on the respective frames.
A skin irritative score after application for 3 days straight was evaluated according to the following evaluation criteria (Draize method). The above irritative score was shown by the total points (full marks: 8 points) of erythema and edema.
Evaluation Criteria of Skin Irritative Score:
3: middle to strong erythema
4: very strong erythema to crust
1: very slight edema formation
2: slight edema formation
3: middle edema formation
4: strong edema formation

Data set [4] deals with skin roughness in the inside of a forearm of a human being. Description: Skin roughness-improving test (SDS-induced skin roughness). Type of data set: in vivo. The settings on record: hydrophilic ointment with 0.05%, twice a day, 3 days; conductance relative to ointment with no tested substance = 100. On the procedure: A 10% SDS solution was used to artificially form a skin roughness in the inside of a forearm of a human being, and a hydrophilic ointment blended with 0.05% of various acyl glucosamine derivatives shown in the following Table 5 was applied thereon twice a day.
The skin roughness-improving degree observed 3 days later after application was evaluated using a change in a stratum corneum water content as an index. The stratum corneum water content is measured in terms of a conductance (μS). The improving degree was shown by a relative value, wherein the conductance observed when applying the hydrophilic ointment blended with no acyl glucosamine derivative was set at 100, and the skin roughness-improving rate was calculated according to the following equation (IV). Skin roughness-improving rate (%)=[(conductance observed when applying the ointment blended with the tested substance)/(conductance observed when applying the ointment blended with no tested substance)]×100 (IV)

The subject of the next data set is acne patients. Description: Acne-improvement evaluation. Type of data set: in vivo, human. Particulars: essence with 0.05%, one month; for Evaluation X (worsened), number of subjects / Evaluation Δ (no change), number of subjects / Evaluation ⊚ (notably improved), number of subjects / Evaluation ◯ (improved), number of subjects: applied on face several times a day; for Acne treating effect: percentage of subjects rated improved or better. How it is done:
Prepared was an essence for acne shown in the following composition example in which 0.05% of various acyl glucosamine derivatives shown in the following Table 6 was blended. An essence which was not blended with an acyl glucosamine derivative was prepared as a control.
Sixty acne patients were picked up as subjects to apply everyday the respective essences on the faces thereof several times a day, and the therapeutic effect against the acnes was visually evaluated a month later according to four degrees of the following evaluation criteria.
In the four degree evaluation described above, improvement (∘) or better effect (⊚) was regarded as “effective for treating acnes”, and the subjects showing a treating effect were shown by a numerical value (percentage).

In data set [1], `CCCCCCCCCCCCCCCCOCCOCCOC(=O)N[C@H]1C(O)O[C@H](CO)[C@@H](O)[C@@H]1O` (stereo partly drawn) [N-POE (2) hexadecyletheroxycarbonyl-D-glucosamine] gave a Texture-improving rate of 89%. For the same molecule, in data set [2], the Wrinkle-improving rate was found to be 72%. In data set [3], the Whitening-improving effect entry is listed as “++”. This molecule also came in with a Draize score with guinea pig skin of 0.1 points. Moreover, the Skin roughness-improving rate in data set [4] is listed as 139%. Besides, in the data set on acne patients, the “Evaluation X (worsened), number of subjects” value (from here on “Evaluation X (worsened)”) is given as 0; the “Evaluation Δ (no change), number of subjects” value (“Evaluation Δ (no change)” below) came to 2; the “Evaluation ⊚ (notably improved), number of subjects” value (“Evaluation ⊚ (notably improved)” below) is 0; the “Evaluation ◯ (improved), number of subjects” value (shortened to “Evaluation ◯ (improved)”) was 3. Besides, the Acne treating effect with acne patients stood at 60%.
In data set [1], `CCCCCCCCCCCCCCCCCCOCCOCCOCCOCCOCCOC(=O)N[C@H]1C(O)O[C@H](CO)[C@@H](O)[C@@H]1O` (stereo partly drawn) [N-POE (5) octadecyletheroxycarbonyl-D-glucosamine] displayed a Texture-improving rate of 92%. In data set [2], this molecule returned a Wrinkle-improving rate of 73%. In addition, the Whitening-improving effect result in data set [3] is listed as “++”. The molecule further yielded a Draize score in the data set with guinea pig skin of 0.2 points. The Skin roughness-improving rate in data set [4] worked out at 128%. For the same molecule, in the data set on acne patients, the “Evaluation X (worsened)” value was determined as 0; the “Evaluation Δ (no change)” value was 3; the “Evaluation ⊚ (notably improved)” value came to 0; the “Evaluation ◯ (improved)” value is reported as 2. In addition, the Acne treating effect in the data set with acne patients stood at 40%.
For the molecule `CCCCCCCCCCCCCCCCCCCCCCOCCOCCOCCOCCOCCOCCOCCOCCOCCOCCOC(=O)N[C@H]1C(O)O[C@H](CO)[C@@H](O)[C@@H]1O` (stereo partly drawn) [N-POE (10) docosyletheroxycarbonyl-D-glucosamine], the Texture-improving rate in data set [1] is listed as 88%. Also, the Wrinkle-improving rate in data set [2] is recorded as 82%. In addition, in data set [3], the Whitening-improving effect result was “++”. Moreover, the Draize score with guinea pig skin is 0.1 points. Further, the Skin roughness-improving rate in data set [4] is 138%. Besides, in the data set with acne patients, the “Evaluation X (worsened)” value is recorded as 0; the “Evaluation Δ (no change)” value was 3; the “Evaluation ⊚ (notably improved)” value came out at 0; the “Evaluation ◯ (improved)” value is given as 2. In addition, the Acne treating effect in the data set with acne patients was determined as 40%.
